From patent US12454516B2, “Nitric oxide releasing prodrugs of MDA and MDMA” (priority 2021, dated 2025)

What was measured:
[1] = Stability of Prodrug 2-1 in plasma (human); type: in vitro ADME
[2] = Stability of Prodrug 2-1 in plasma (rat); type: in vitro ADME
[3] = Stability of Prodrug 2-1 in plasma (mouse); type: in vitro ADME
Solubility in FaSSIF = type: physicochemical; conditions: read-out: Solublity (uM) FaSSIF
[4] = Stability in SGF with pepsin; type: in vitro ADME
[5] = Stability in SGF without pepsin; type: in vitro ADME
physchem = conditions: buffer, pH 6.5

SMILES	Remaining Percentage (%) 0 min (Stability in PBS pH 6.5) [%]	Remaining Percentage (%) 30 min (Stability in PBS pH 6.5) [%]	Remaining Percentage (%) 60 min (Stability in PBS pH 6.5) [%]	Remaining Percentage (%) 120 min (Stability in PBS pH 6.5) [%]	Remaining Percentage (%) 240 min (Stability in PBS pH 6.5) [%]	half-life [1] [h]	Remaining Percentage (%) 0 min [1] [%]	Remaining Percentage (%) 15 min [1] [%]	Remaining Percentage (%) 30 min [1] [%]	Remaining Percentage (%) 60 min [1] [%]	Remaining Percentage (%) 120 min [1] [%]	half-life [2] [h]	Remaining Percentage (%) 0 min [2] [%]	Remaining Percentage (%) 15 min [2] [%]	Remaining Percentage (%) 30 min [2] [%]	Remaining Percentage (%) 60 min [2] [%]	Remaining Percentage (%) 120 min [2] [%]	half-life [3] [h]	Remaining Percentage (%) 0 min [3] [%]	Remaining Percentage (%) 15 min [3] [%]	other results
O=C(O)CCCc1ccc(N(CCCl)CCCl)cc1 [Chlorambucil, reference compound]	100	62.6	39.9	15.07	2.05	–	–	–	–	–	–	–	–	–	–	–	–	–	–	–	–
C[C@H](Cc1ccc2c(c1)OCO2)NC(=O)CCCO[N+](=O)[O-] [Compound 2-1, (R)-4-((1-(benzo[d][1,3]dioxol-5-yl)propan-2-yl)amino)-4-oxobutyl nitrate]	100	104.05	105.81	98.20	83.83	15.1	100.00	100.94	102.03	90.66	93.79	3.84	100.00	96.93	93.53	81.00	70.84	26.2	100.00	95.13	Remaining Percentage (%) 30 min [3]: 98.19%; Remaining Percentage (%) 60 min [3]: 95.02%; Remaining Percentage (%) 120 min [3]: 93.59%; solubility (Solubility in FaSSIF): 284 µM; half-life [4]: 13.5 h; Remaining Percentage (%) 0 min [4]: 100%; Remaining Percentage (%) 30 min [4]: 98.88%; Remaining Percentage (%) 60 min [4]: 98.96%; Remaining Percentage (%) 120 min [4]: 89.53%; Remaining Percentage (%) 240 min [4]: 82.75%; half-life [5]: 14.3 h; Remaining Percentage (%) 0 min [5]: 100%; Remaining Percentage (%) 30 min [5]: 95.42%; Remaining Percentage (%) 60 min [5]: 99.51%; Remaining Percentage (%) 120 min [5]: 93.54%; Remaining Percentage (%) 240 min [5]: 81.87%; half-life (physchem): 13.4 h
CC[C@H]1OC(=O)[C@H](C)[C@@H](O[C@H]2C[C@@](C)(OC)[C@@H](O)[C@H](C)O2)[C@H](C)[C@@H](O[C@@H]2O[C@H](C)C[C@H](N(C)C)[C@H]2O)[C@](C)(O)C[C@@H](C)C(=O)[C@H](C)[C@@H](O)[C@]1(C)O [Erythromycin, reference compound]	–	–	–	–	–	–	–	–	–	–	–	–	–	–	–	–	–	–	–	–	Remaining Percentage (%) 0 min [4]: 100%; Remaining Percentage (%) 30 min [4]: 59.9%; Remaining Percentage (%) 60 min [4]: 39.02%; Remaining Percentage (%) 120 min [4]: 12.40%; Remaining Percentage (%) 240 min [4]: 1.57%; Remaining Percentage (%) 0 min [5]: 100%; Remaining Percentage (%) 30 min [5]: 60.53%; Remaining Percentage (%) 60 min [5]: 34.86%; Remaining Percentage (%) 120 min [5]: 11.45%; Remaining Percentage (%) 240 min [5]: 1.64%
CC[C@H](C)C(=O)O[C@H]1C[C@@H](C)C=C2C=C[C@H](C)[C@H](CC[C@@H]3C[C@@H](O)CC(=O)O3)[C@H]21 [Lovastatin, reference compound]	–	–	–	–	–	–	–	–	–	–	–	0.0747	100.00	9.82	0.00	0.00	0.00	–	–	–	–
CC(C)[N+](C)(CCOC(=O)C1c2ccccc2Oc2ccccc21)C(C)C [Propantheline, reference compound]	–	–	–	–	–	0.246	100.00	72.22	39.13	6.46	0.12	–	–	–	–	–	–	0.449	100.00	72.20	Remaining Percentage (%) 30 min [3]: 49.21%; Remaining Percentage (%) 60 min [3]: 22.77%; Remaining Percentage (%) 120 min [3]: 4.69%
